Data reported in PMC10394516, “The pharmacokinetic profile of brensocatib and its effect on pharmacodynamic biomarkers including NE, PR3, and CatG in various rodent species” (Frontiers in Pharmacology, 2023).

Tested on: NE
Assay: PD onset study, bone marrow NE activity, C57BL/6 mice
Type: in vivo
Details: for Percent change from vehicle NE: bone marrow, 5 mg/kg BID oral
Description: A 14-day PD onset study was performed in female C57BL/6 mice dosed BID. Mice were dosed by oral gavage either with vehicle (0 mg/kg) or 5 mg/kg brensocatib (BID; 10 mg/kg/day) for 1, 4, 7, 10, or 14 consecutive days. Plasma was collected from animals during the first 24 h of dosing at 1, 2, 8, 9, 10, and 24 h post the initial dose. Note the 8- and 24-h plasma samples were prior to the afternoon dose and the second day dose (if applicable), respectively. Plasma was used for PK analysis via LC-MS/MS. On prescribed days, animals were sacrificed 16 h post final dose, and the hind bones (femurs and tibias) were collected at necropsy for bone marrow analysis of NSP activities by kinetic enzymatic assays.
For the mice, each animal had the femurs and tibias of both hind limbs harvested. For the rat, the femur and tibia from a single hind limb per animal was harvested. Bones were kept on wet ice until processing for bone marrow collection. In brief, bone cutters were used to cut the epiphysis (knobby ends) off the long bones to expose the bone marrow filled cavity. Each bone cavity was then flushed with 5 mL/bone (mouse) or 10 mL/bone (rat) of ice-cold RPMI media through a […] and collected in a 50-mL conical tube. Cells were spun down at 2,500 × g at 4°C for 5 min and the supernatant was aspirated. After which, bone marrow cells were lysed with 1X red blood cell (RBC) lysis buffer (Abcam, ab204733) to eliminate contaminating RBCs and washed with PBS to remove any residual RBC lysis buffer. The resulting white blood cells (WBC) were subsequently lysed with 1% (v/v) Triton X-100 in PBS. Lysates were added to 96-well plates and stored at −80°C until NSP analyses.
Bone marrow lysates prepared as described above were diluted and plated onto 96-well assay plates to quantify NSP activities as described previously ([Basso et al., 2022]). Briefly, peptide substrates for NE (N-Methoxysuccinyl-Ala-Ala-Pro-Val-7-amido-4-methylcoumarin; Sigma; St. Louis, MO; Excitation/Emission at 350/450 nm), PR3 ((7-Methoxycoumarin-4-yl)acetyl-lysyl-(picolinoyl)-Tyr-Asp-Ala-Lys-Gly-Asp-N-3-(2-4-dinitrophenyl)-2-3-diaminopropyonyl-NH2); GenScript; Piscataway, NJ; Excitation/Emission at 340/430 nm), and CatG (N-Succinyl-Ala-Ala-Pro-Phe p nitroanilide; Sigma; Absorbance at 405 nm) were added at a final assay concentration of 100 μM, 40 μM, and 200 μM, respectively, and either fluorescence or absorbance was quantified using a Synergy microplate reader (BioTek; Winooski, VT). The specific NSP activity in each sample was calculated as the total activity minus the activity in the presence of a specific NSP inhibitor (if used), including elastase inhibitor (Abcam) for NE, sivelestat (Abcam) for PR3, and cathepsin G inhibitor I (Cayman Chemical; Ann Arbor, MI) for CatG. NSP concentrations were interpolated based on their activities relative to the standard curves created using active human NE protein (Sigma), active human PR3 protein (Sigma), and active human CatG protein (Sigma), respectively. Due to unavailability of commercial mouse and/or rat NE, PR3, and CatG proteins, the corresponding human proteins were used instead since their catalytic ability is considered to be conserved across species. A portion of each cell lysate sample was retained for protein quantification using a Pierce™ BCA Protein Assay Kit (Thermo Fisher). The NSP activities were normalized for the cell lysate protein concentrations.
The Pierce™ BCA Protein Assay Kit was used to measure the total protein of the samples after lysis to allow for subsequent normalization. The manufacturer’s instructions for use were followed when performing this assay on a portion of the sample lysates which were diluted in PBS, the same diluent as used for preparation of the standard. Plates were read on the Biotek Synergy plate reader with Gen5 software.

[1] = 5 mg/kg BID, curve fit with free min and max

**Q.** How did the “Onset: Maximum reduction (plateau), NE” value [1] turn out when `Cn1c(=O)oc2ccc(-c3ccc(C[C@@H](C#N)NC(=O)[C@@H]4CNCCCO4)cc3)cc21` [brensocatib] was run?
**A.** 80%

**Q.** What about the “Onset: Time to reach 50% reduction, NE” value [1] of the same compound?
**A.** 4.3 days

**Q.** And the “Onset: Time to reach max reduction, NE” value [1]?
**A.** 6.4 days

**Q.** And the “Percent change from vehicle NE” value (after 1 day of treatment)?
**A.** −28% (p = 0.0826)

**Q.** And the “Percent change from vehicle NE” value (after 4 days of treatment)?
**A.** −59% (p < 0.0001)

**Q.** And the “Percent change from vehicle NE” value (after 7 days of treatment)?
**A.** −83% (p < 0.0001)

**Q.** And the “Percent change from vehicle NE” value (after 10 days of treatment)?
**A.** −76% (p < 0.0001)

**Q.** And the “Percent change from vehicle NE” value (after 14 days of treatment)?
**A.** −82% (p < 0.0001)
